{"source": "patent US6953808B2", "about": "“Method for treating gastric disorders using optically pure (−) pantoprazole” (Sepracor Inc., priority 1993, dated 2005)", "key": {"[1]": {"system": "endogenous acid secretion", "assay": "Inhibition of endogenous acid secretion in pylorus-ligated rats", "assay_type": "in vivo, rat", "details": "ratio of doses for 50% reduction", "excerpt": "This may increase pantoprazole's selectivity for the acid secreting parietal cells, where low pH conditions exist in the intracellular canaliculi. In intact animals, pantoprazole is active in inhibiting gastric acid secretion in both rats and dogs. Specifically, the intravenous and oral doses required to reduce endogenous acid secretion in pylorus-ligated rats by 50% are in the 1-3 μmole/kg range. […] Racemic pantoprazole is also effective at doses less than 5 μmole/kg in inhibiting exogenously stimulated acid secretion induced by a variety of agonists, indicating general activity of the drug in inhibiting acid secretion."}, "mice [2]": {"system": "mice", "assay": "Acute toxicity (LD50) in mice", "assay_type": "in vivo"}, "duodenal ulcers": {"system": "duodenal ulcers", "details": "patients with duodenal ulcers, after four weeks of 20 to 80 mg per day; cited from earlier work"}, "[3]": {"system": "endogenous acid secretion", "details": "pylorus-ligated rats, cited from earlier work"}, "[4]": {"system": "exogenously stimulated acid secretion", "details": "secretion induced by a variety of agonists; cited from earlier work"}, "[5]": {"details": "neutral and moderately acidic conditions; compared with omeprazole; cited from earlier work"}, "[6]": {"system": "hepatic drug metabolizing enzyme systems", "details": "intact rats and rat microsomal enzyme preparations; compared to omeprazole; cited from earlier work"}, "serum gastrin": {"system": "serum gastrin", "details": "humans, short-term administration; cited from earlier work"}, "rats": {"system": "rats", "details": "two year; cited from earlier work"}, "rat": {"system": "rat", "details": "cited from earlier work"}, "mice [7]": {"system": "mice", "details": "cited from earlier work"}, "beta-adrenergic": {"system": "beta-adrenergic", "details": "cited from earlier work"}, "H^+,K^+-ATPase": {"target": "H^+,K^+-ATPase (Homo sapiens, UniProt P20648)", "sequence (P20648 whole entry)": "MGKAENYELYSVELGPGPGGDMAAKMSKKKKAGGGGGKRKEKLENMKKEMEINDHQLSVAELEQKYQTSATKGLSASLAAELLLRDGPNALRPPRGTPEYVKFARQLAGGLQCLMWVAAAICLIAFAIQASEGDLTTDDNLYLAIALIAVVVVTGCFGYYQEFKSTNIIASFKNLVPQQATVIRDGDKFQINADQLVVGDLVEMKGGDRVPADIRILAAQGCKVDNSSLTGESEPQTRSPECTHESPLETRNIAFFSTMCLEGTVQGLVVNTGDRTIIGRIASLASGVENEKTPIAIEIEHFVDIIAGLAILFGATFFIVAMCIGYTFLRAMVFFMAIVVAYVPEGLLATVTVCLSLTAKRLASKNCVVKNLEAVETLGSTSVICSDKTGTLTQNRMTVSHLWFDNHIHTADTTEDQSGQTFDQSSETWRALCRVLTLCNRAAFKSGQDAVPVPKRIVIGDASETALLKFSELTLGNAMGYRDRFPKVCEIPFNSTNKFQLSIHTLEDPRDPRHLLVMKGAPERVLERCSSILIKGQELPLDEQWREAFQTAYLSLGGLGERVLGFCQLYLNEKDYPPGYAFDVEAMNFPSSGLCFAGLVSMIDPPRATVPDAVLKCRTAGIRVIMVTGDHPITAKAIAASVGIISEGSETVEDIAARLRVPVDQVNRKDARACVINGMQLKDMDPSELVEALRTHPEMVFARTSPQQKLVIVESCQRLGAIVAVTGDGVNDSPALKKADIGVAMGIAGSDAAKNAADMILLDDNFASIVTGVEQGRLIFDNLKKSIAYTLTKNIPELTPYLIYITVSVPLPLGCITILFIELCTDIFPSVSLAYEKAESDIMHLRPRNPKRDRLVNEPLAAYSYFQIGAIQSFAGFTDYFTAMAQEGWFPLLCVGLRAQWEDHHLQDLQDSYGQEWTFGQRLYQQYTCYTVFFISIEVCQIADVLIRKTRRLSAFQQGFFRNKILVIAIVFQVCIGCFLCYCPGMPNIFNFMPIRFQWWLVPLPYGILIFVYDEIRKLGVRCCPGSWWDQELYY", "sequence (P51164 whole entry partner)": "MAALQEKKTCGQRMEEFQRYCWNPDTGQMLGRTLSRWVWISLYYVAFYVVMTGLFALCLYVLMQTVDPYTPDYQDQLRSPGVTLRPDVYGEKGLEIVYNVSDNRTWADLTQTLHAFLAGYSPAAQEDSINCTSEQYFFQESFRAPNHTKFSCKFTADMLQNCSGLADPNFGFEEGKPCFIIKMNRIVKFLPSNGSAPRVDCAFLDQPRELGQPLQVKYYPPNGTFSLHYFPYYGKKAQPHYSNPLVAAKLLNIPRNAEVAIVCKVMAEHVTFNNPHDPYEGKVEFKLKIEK", "details": "cited from earlier work"}}, "data": [{"smiles": "COc1ccnc(C[S+]([O-])c2nc3ccc(OC(F)F)cc3[nH]2)c1OC", "note": "(racemic) [racemic pantoprazole]", "values": [{"measurement": "calculated oral/intravenous (p.o./i.v.) ratio", "setting": "[1]", "value": "approximately 2"}, {"measurement": "p.o./i.v. LD50 ratio", "setting": "mice [2]", "value": "approximately 2"}, {"measurement": "ulcer healing", "setting": "duodenal ulcers", "value": "90-100%"}, {"measurement": "intravenous dose required to reduce endogenous acid secretion by 50%", "setting": "[3]; intravenous", "value": "1 to 3", "unit": "µmol/kg"}, {"measurement": "oral dose required to reduce endogenous acid secretion by 50%", "setting": "[3]; oral", "value": "1 to 3", "unit": "µmol/kg"}, {"measurement": "effective dose inhibiting exogenously stimulated acid secretion", "setting": "[4]", "value": "less than 5 μmole/kg"}, {"measurement": "chemical stability", "setting": "[5]", "value": "more chemically stable"}, {"measurement": "inhibition of hepatic drug metabolizing enzyme systems", "setting": "[6]", "value": "weaker inhibitor"}, {"measurement": "fasting serum gastrin levels", "setting": "serum gastrin", "value": "significantly elevated"}, {"measurement": "finding in carcinogenicity study", "setting": "rats", "value": "hepatocellular neoplasia"}, {"measurement": "oral LD50", "setting": "rat; in vivo, po", "value": "> 2,467 μmol/kg"}, {"measurement": "intravenous LD50", "setting": "rat; intravenous", "value": 632, "unit": "µmol/kg"}, {"measurement": "intravenous LD50", "setting": "mice [7]", "value": 975, "unit": "µmol/kg"}]}, {"smiles": "CC(C)NC[C@H](O)COc1cccc2ccccc12", "note": "[L-form of propranolol, propranolol]", "values": [{"measurement": "potency relative to D-enantiomer", "setting": "beta-adrenergic", "value": 100, "unit": "times"}]}, {"smiles": "COc1ccnc(C[S+]([O-])c2nc3cc(OC(F)F)ccc3[n-]2)c1OC.[Na+]", "note": "(racemic) [Racemic pantoprazole sodium]", "values": [{"measurement": "inhibition of H+,K+-ATPase", "setting": "H^+,K^+-ATPase", "value": "potent, irreversible inhibitor"}]}]}
